Assay results published in patent publication US5378730A, “Permeation enhancer comprising ethanol and monoglycerides” (priority 1992, dated 1995).

Assay type: in vitro ADME, human
Experimental: The optimum range of water in a permeation-enhancing mixture when used with the drug sodium piroxicam, where the ratio of Myverol 99K monoglyceride to ethanol is 40 to 55.4 in the mixture, was determined as follows. Various ethanol/Myverol 18-99K/water donor compositions, in the weight ratios listed in Table C, were tested with sodium piroxicam to measure their effect upon the drug flux across human cadaver epidermis at 35° C. The ratio of ethanol to monoglyceride was initially 55.4 to 40, to which varying amounts of water were added. All donor compositions were saturated with the drug. Test data were obtained using a 1.13 cm^2 wet-wet horizontal flux cell with 0.2 ml donor solution and 20 ml receptor solutions (pH 7.4 phosphate buffer, 0.05 M).

In the case of `CN1C(C(=O)Nc2ccccn2)=C(O)c2ccccc2S1(=O)=O` [sodium piroxicam], the “optimum range of water content in the permeation-enhancing mixture” value was 23-33 wt %.
